Results taken from paper PMC12022103 (Scientific Reports, 2025).
No end group written: not given here.

Tests used:
E. coli ATCC 25922 [1] = experiment: Minimum inhibitory concentration (MIC), broth dilution; type: cell-based, Escherichia coli; conditions: E. coli ATCC 25922; two-fold dilution in MH II broth, 5 × 10^5 CFU/mL, 18–24 h, 37 °C, OD600; triplicate, highest number reported; detection limit <0.5 and >128 µM
Description: (§1) The panel of bacterial reference strains used in this work for assessment of synthetic peptide activity originated from the American Type Culture Collection (ATCC) and was obtained from the Diagnostic section at the Department of Microbiology, Oslo University Hospital. The strains used were as follows: E. coli ATCC 25922, K. pneumoniae ATCC 13883, A. baumannii ATCC 17978, S. aureus ATCC 29213, and E. faecalis ATCC 29212.
(§2) Bacterial strains were plated on cation-adjusted Mueller-Hinton (MH II) agar plates and incubated at 37 °C overnight. The day after single colonies were picked and resuspended in sterile-filtered saline (0.9%). The OD of each bacterial suspension was adjusted to McFarland standard 0.5 using a spectrophotometer (UV-1800, Shimadzu), and the suspension further diluted 1:100 in MH II broth, corresponding to 10^6 colony forming units (CFU) per mL. The inoculum suspension was used for MIC, MBC, time-kill and protease stability assessments as described below. To ensure correct inoculum sizes, 10 µL of the bacterial suspensions were diluted 2000-fold in sterile-filtered saline (0.9%) and 100 µL plated onto MH II agar plates. After overnight incubation at 37 °C, colonies were counted. If found to be outside the acceptable number (20–80 colonies per plate corresponding to ∼10^6 CFU/mL), results from further analyses were discarded.
(§3) The peptides were serially diluted (two-fold) directly in 96-well plates (Greiner, MICROPLATE, 96 WELL, PP, U-BOTTOM, NATURAL, 650261) containing MH II broth, corresponding to concentrations in the range 256–0.5 µM. An equal volume of bacterial suspension was added to each well, resulting in a final inoculum of 5 × 10^5 CFU/mL and final peptide concentrations of 128–0.25 µM. The 96-well plates were incubated for 18–24 h at 37 °C, after which the OD of each well was measured at 600 nm in a plate reader (Victor Nivo, Perkin-Elmer). The minimum inhibitory concentration (MIC) was estimated as the lowest concentration of peptide that produced OD600 measurements similar to the control wells containing no bacteria. The experiments were performed in triplicate. Two-fold variations in MIC values were often observed between replicates.

E. coli ATCC 25922 [2] = experiment: Minimum bactericidal concentration (MBC); type: cell-based, Escherichia coli; conditions: 5 µL from MIC wells plated on MH II agar, 37 °C overnight, no visible colonies, triplicate, highest number reported, detection limit <0.5 and >128 µM
Description: as §1, §2
(§4) In order to assess the minimum bactericidal concentration (MBC) of peptides, 5 µL from each well of the 96-well plate used for MIC analysis was plated onto MH II agar and incubated at 37 °C overnight. […] The experiments were performed in triplicate. Two-fold variations in MIC values were often observed between replicates.

P. aeruginosa [3] = experiment: Minimum inhibitory concentration (MIC), broth dilution; type: cell-based; conditions: MH II broth, 5 × 10^5 CFU/mL, 18–24 h, 37 °C, OD600; triplicate, highest number reported; detection limit <0.5 and >128 µM
P. aeruginosa [4] = experiment: Minimum bactericidal concentration (MBC); type: cell-based; conditions: 5 µL from MIC wells plated on MH II agar, 37 °C overnight, no visible colonies; triplicate, highest number reported
A. baumannii ATCC 17978 [5] = experiment: Minimum bactericidal concentration (MBC); type: cell-based; conditions: 5 µL from MIC wells plated on MH II agar, 37 °C overnight, no visible colonies, triplicate, highest number reported
Description: as §1, §2, §4

K. pneumoniae ATCC 13883 [6] = experiment: Minimum bactericidal concentration (MBC); type: cell-based; conditions: 5 µL from MIC wells plated on MH II agar, 37 °C overnight, no visible colonies, triplicate, highest number reported
Description: as §1, §2, §4

S. aureus ATCC 29213 [7] = experiment: Minimum bactericidal concentration (MBC); type: cell-based; conditions: 5 µL from MIC wells plated on MH II agar, 37 °C overnight, no visible colonies, triplicate, highest number reported
Description: as §1, §2, §4

E. faecalis ATCC 29212 [8] = experiment: Minimum bactericidal concentration (MBC); type: cell-based; conditions: 5 µL from MIC wells plated on MH II agar, 37 °C overnight, no visible colonies, triplicate, highest number reported
Description: as §1, §2, §4

A. baumannii ATCC 17978 [9] = experiment: Minimum inhibitory concentration (MIC), broth dilution; type: cell-based; conditions: MH II broth, 5 × 10^5 CFU/mL, 18–24 h, 37 °C, OD600, triplicate, highest number reported, detection limit <0.5 and >128 µM
Description: as §1, §2, §3

K. pneumoniae ATCC 13883 [10] = experiment: as above; type: cell-based; conditions: K. pneumoniae ATCC 13883; MH II broth, 5 × 10^5 CFU/mL, 18–24 h, 37 °C, OD600; triplicate, highest number reported; detection limit <0.5 and >128 µM
Description: as §1, §2, §3

S. aureus ATCC 29213 [11] = experiment: as above; type: cell-based; conditions: S. aureus ATCC 29213; MH II broth, 5 × 10^5 CFU/mL, 18–24 h, 37 °C, OD600; triplicate, highest number reported; detection limit <0.5 and >128 µM
Description: as §1, §2, §3

E. faecalis ATCC 29212 [12] = experiment: as above; type: cell-based; conditions: E. faecalis ATCC 29212; MH II broth, 5 × 10^5 CFU/mL, 18–24 h, 37 °C, OD600; triplicate, highest number reported; detection limit <0.5 and >128 µM
Description: as §1, §2, §3

Substance | MIC, E. coli (E. coli ATCC 25922 [1]) [µM] | MBC, E. coli (E. coli ATCC 25922 [2]) [µM] | MIC, P. aeruginosa (P. aeruginosa [3]) [µM] | MBC, P. aeruginosa (P. aeruginosa [4]) [µM] | MBC, A. baumannii (A. baumannii ATCC 17978 [5]) [µM] | MBC, K. pneumoniae (K. pneumoniae ATCC 13883 [6]) [µM] | MBC, S. aureus (S. aureus ATCC 29213 [7]) [µM] | MBC, E. faecalis (E. faecalis ATCC 29212 [8]) [µM] | MIC, A. baumannii (A. baumannii ATCC 17978 [9]) [µM] | MIC, K. pneumoniae (K. pneumoniae ATCC 13883 [10]) [µM] | MIC, S. aureus (S. aureus ATCC 29213 [11]) [µM] | MIC, E. faecalis (E. faecalis ATCC 29212 [12]) [µM]
KKKKIIIAVLQLILLFL-NH2 [2d-N12] | > 128 | > 128 | > 128 | > 128 | > 128 | > 128 | > 128 | > 128 | > 128 | > 128 | > 128 | > 128
KKKKKKFVLKLILKLL-NH2 [2g-N12] | 128 | 128 | 128 | 128 | 128 | 128 | 128 | 128 | 128 | 64 | 128 | 64
KKKKKKFVLQLILKLL-NH2 [2h-N12] | > 128 | > 128 | > 128 | > 128 | > 128 | > 128 | > 128 | > 128 | > 128 | > 128 | > 128 | > 128
RRRRFVLRLILRLL-NH2 [2i-N12] | 64 | 128 | 64 | 128 | 128 | 128 | 128 | 128 | 128 | 64 | 64 | 64
RRRRRRFVLRLILRLL-NH2 [2j-N12] | 64 | 128 | 64 | 64 | 64 | 64 | 64 | 32 | 64 | 64 | 64 | 32
VKKKKKAVLQLILKFLRRRR-NH2 [3b-N10] | 16 | 16 | 4 | 4 | 8 | 16 | 8 | 4 | 8 | 16 | 8 | 4
VRRRRRAVLQLILRFL-NH2 [3a-N10] | 32 | 32 | 64 | 64 | 16 | 32 | 32 | 16 | 16 | 32 | 32 | 16
